Measurements: patent publication US20230143604A1, “QW DOSING OF GIP RECEPTOR AGONIST PEPTIDE COMPOUNDS AND USES THEREOF” (TAKEDA PHARMACEUTICAL COMPANY LIMITED, priority 2020, published 2023)
Where two headings read alike, the source gives them in different places. Starred links: 1 amine or outer side, 2 acyl side, 3 side chain; linkers in the order of their positions; H or OH if unused. Non-standard residues stand in square brackets, D forms with d. Residues, ends and D or L forms follow the SMILES beside them. Groups on a side chain read outwards from the residue. *: point of attachment. C18 diacid = O=C(O)CCCCCCCCCCCCCCCCC(=O)*; γGlu = O=C(O)[C@H](CCC(=O)[*:2])N[*:1]; NMeY = CN[C@@H](Cc1ccc(O)cc1)C(=O)O; AEEA = NCCOCCOCC(=O)O; Aib = CC(C)(N)C(=O)O

Legend:
[1] = Pharmacokinetics in dog after IV and SC dosing; settings: in vivo
Description: Pharmacokinetic (PK) were conducted in dog in order to determine the half-life after IV and SC dosing. The peptide was dissolved in 10% DMSO/0.09% Polysorbate/PBS pH 7.4 to a concentration of 3 nmol/mL and the animal were dose with a volume of 1 mL/kg SC or IV. Blood sample were collected at 0, 0.033, 0.083, 0.25, 0.5, 1, 2, 4, 6, 8, 12, 24, 48, 72, 96, 120, 168, 336 hours for IV dosing and 0.25, 0.5, 1, 2, 4, 6, 8, 12, 24, 48, 72, 96, 120, 168, 336 for SC dosing, EDTA-K2 was used as anticoagulant. The plasma concentration of the peptide was measured using LCMS. Allometric scaling of lipidated peptide pharmacokinetics including T1/2 and MRT is known in the art for rodent to dog and mini pig and to humans. […] See for example, Discovery and Development of Liraglutide and Semaglutide. Knudsen, L. B.; Lau, J. Frontiers in Endocrinology, 2019, vol 10, Article 155.

[2] = Human plasma protein binding (PPB); type: in vitro ADME; settings: for fraction unbound at 30 min, 1000 nmol/L: both sexes, pH 7.4
Description: Stock solutions: (1000 μM) of the peptides are prepared in DMSO.
Human plasma (mixed gender; containing K2-EDTA as anti-coagulant; pre-adjusted to pH 7.4—NB alternative species may be used) is spiked individually with each test peptide (1000 nmol/L), sampled for analysis and then incubated (n=4) at 37° C. in a water bath for 30 minutes. Following the incubation period, the plasma is sampled for analysis, then transferred to ultracentrifugation tubes and centrifuged (n=3) at […] and 4° C. for 3 hours, after which the supernatant is sampled for analysis. An additional aliquot of the supernatant is taken at the end of the centrifugation period to determine the total protein concentration. An aliquot of the incubated plasma will be stored at 4° C. for 3 hours and then sampled for analysis. At the point of sampling, all samples are matrix-matched, treated with ice-cold acetonitrile/methanol (4:1 (vfv)) containing internal standard, centrifuged al 2000 g and 4° C. for 10 minutes and stored prior to LC-MS/MS analysis. An appropriate positive control compound control will be incubated and centrifuged in parallel; control plasma is also centrifuged to generate samples for matrix-matching. Fraction unbound in plasma (Fuplasma) values is determined by comparison of the analyte response in plasma to the analyte response in the supernatant, determined via peak area response ratios.
The samples are analyzed by LC-MS/MS using a 6500 (or equivalent) triple quadrupole mass spectrometer (AB Sciex) coupled to an appropriate Liquid Chromatography (LC) system. Protein binding and stability values are determined via peak area ratios using multiple reaction monitoring (MRM) parameters following compound optimisation. Multiple reaction monitoring (MRM) is a highly sensitive method of targeted mass spectrometry (MS) that can be used to selectively detect and quantify peptides based on the screening of specified precursor peptide-to-fragment ion transitions.

[3] = Dog plasma protein binding (PPB); type: in vitro ADME
Description: Dog PPB values presented below are obtained essentially as described for Human PPB samples, with the difference being that dog serum is used instead of human serum. Table 10 is provided with the values of (Fu,plasma) as fraction unbound expressed as a percentage compared to the percent bound. i.e. if the value is 0.0123, then the fraction unbound is […], which is 1.23% of the peptide is unbound and 98.77% is bound in plasma. Methods and analysis for performing the dog PPB protocol and results are the same as noted herein as for the Human PPB protocol and analysis.

physchem = assay: physchem
Method in brief: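 3 mg of peptide treated with 100 μL portions of 200 mM phosphate buffer pH 7.4, sonicating/vortexing up to 1 min, with further buffer added until fully dissolved. Solubility then quantified by HPLC.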

human GLP-1R = biological target: T1, human GLP-1R (Homo sapiens, UniProt P43220); assay: Human GLP1R agonist activity, intracellular cAMP accumulation; type: cell-based; settings: Human GLP1R cAMP EC50, HEK293T (nM), HEK-293T cells overexpressing human GLP-1R, 1 hr
T1 construct: HEK-293T cells overexpressing full-length human GLP-1R; FLAG (N); host or cells: HEK-293T
Method in brief: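 Frozen assay-ready cells washed and resuspended at 4×10^5 cells/mL in Krebs Ringer buffer, then incubated with compound 1 hr at room temperature in the dark. cAMP read by HTRF (anti-cAMP antibody, d2-cAMP tracer). Normalised to 1 nm GLP-1 (100%) and DMSO (0%).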

C57BL/6J mice = assay: Oral glucose tolerance test (OGTT); type: in vivo; settings: 3 nmol/kg s.c., 24 hours before glucose loading
Method in brief: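 Peptide or vehicle given s.c. at 0.1, 0.3, 3 or 10 nmol/kg (peptide-dependent), 24 h before oral 50% dextrose at 5 ml/kg unless stated otherwise. Blood glucose read at 0, 15, 30 and 60 min. % inhibition = (1−(AUC cpd−AUC naïve)/(AUC veh−AUC naïve))×100.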

[4] = judged for once per week (QW) dosing
[5] = fraction unbound, human plasma, 1000 nmol/L peptide, ultracentrifugation
[6] = pH 7.4, fraction unbound, dog serum, read-out: Dog PPB (FUplasma)

T1 sequence (P43220 24-463): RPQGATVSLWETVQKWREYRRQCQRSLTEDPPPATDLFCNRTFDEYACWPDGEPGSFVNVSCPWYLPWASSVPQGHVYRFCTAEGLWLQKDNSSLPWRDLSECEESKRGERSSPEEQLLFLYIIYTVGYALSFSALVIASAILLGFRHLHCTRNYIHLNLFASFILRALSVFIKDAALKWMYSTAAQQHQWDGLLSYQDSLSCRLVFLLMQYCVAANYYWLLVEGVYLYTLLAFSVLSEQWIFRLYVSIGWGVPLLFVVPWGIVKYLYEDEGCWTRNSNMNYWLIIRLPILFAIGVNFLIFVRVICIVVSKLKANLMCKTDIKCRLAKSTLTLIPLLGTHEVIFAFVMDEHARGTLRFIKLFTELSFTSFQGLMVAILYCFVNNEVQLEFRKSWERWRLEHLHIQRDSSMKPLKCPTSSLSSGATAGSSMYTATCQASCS

Structure (SMILES) | half-life ([1]; iv, 3 nmol/kg) | MRT last ([1]; sc, 3 nmol/kg) | fraction unbound at 30 min, 1000 nmol/L ([2]; plasma (K2-EDTA), fraction unbound, human plasma, 1000 nmol/L peptide, ultracentrifugation, read-out: Human PPB (FUplasma)) | free unbound peptide in human plasma (in words) [2, 4] | Dog PPB (FUplasma) ([3]; fraction unbound, dog serum) | solubility (physchem; pH 7.4) | solubility (physchem; pH 7.4, aqueous buffer) | fraction unbound at 30 min, 1000 nmol/L ([2]; human, plasma) | free unbound peptide in human plasma (in words) ([2]; human, plasma) | fraction unbound at 30 min, 1000 nmol/L ([3]; dog, serum, pH 7.4) | half-life ([1]; IV 3 nmol/kg, read-out: IV T½ (converted)) | MRT last ([1]; SC 3 nmol/kg, read-out: SC MRT 0-last) | Human PPB (FUplasma) [2, 5] | fraction unbound [3, 6] | EC50 (human GLP-1R) | fraction unbound at 30 min, 1000 nmol/L [3, 6] | Oral Glucose Tolerance Test Percent decrease in blood glucose AUC (%) over 60 mins (C57BL/6J mice)
CC[C@H](C)[C@H](NC(=O)[C@H](Cc1ccccc1)NC(=O)[C@@H](NC(=O)CNC(=O)[C@H](CCC(=O)O)NC(=O)C(C)(C)NC(=O)[C@H](Cc1ccc(O)cc1)NC)[C@@H](C)O)C(=O)N[C@@H](CO)C(=O)N[C@@H](CC(=O)O)C(=O)N[C@@H](Cc1ccc(O)cc1)C(=O)N[C@@H](CO)C(=O)N[C@H](C(=O)NC(C)(C)C(=O)N[C@@H](CC(C)C)C(=O)N[C@@H](CC(=O)O)C(=O)N[C@@H](CCCNC(=N)N)C(=O)NC(C)(C)C(=O)N[C@@H](C)C(=O)N[C@@H](CCC(N)=O)C(=O)NC(C)(C)C(=O)N[C@@H](CC(N)=O)C(=O)N[C@@H](Cc1ccccc1)C(=O)N[C@H](C(=O)N[C@@H](CC(N)=O)C(=O)N[C@@H](Cc1c[nH]c2ccccc12)C(=O)N[C@@H](CC(C)C)C(=O)N[C@@H](CC(C)C)C(=O)N[C@@H](C)C(=O)N[C@@H](CCC(N)=O)C(=O)N[C@@H](CCCCNC(=O)COCCOCCNC(=O)COCCOCCNC(=O)CC[C@H](NC(=O)CC[C@H](NC(=O)CCCCCCCCCCCCCCCCC(=O)O)C(=O)O)C(=O)O)C(=O)N1CCC[C@H]1C(=O)N[C@@H](CO)C(=O)N[C@@H](CO)C(=O)NCC(=O)N[C@@H](C)C(=O)N1CCC[C@H]1C(=O)N1CCC[C@H]1C(=O)N1CCC[C@H]1C(=O)N[C@@H](CO)C(N)=O)C(C)C)[C@@H](C)CC [Compound 27, Me-Y-Aib-E-G-T-F-I-S-D-Y-S-I-Aib-L-D-R-Aib-A-Q-Aib-N-F-V-N-W-L-L-A-Q-Km-P-S-S-G-A-P-P-P-S-NH2] (H-[NMeY][Aib]EGTFISDYSI[Aib]LDR[Aib]AQ[Aib]NFVNWLLAQK([AEEA-AEEA-γGlu-γGlu-C18 diacid])PSSGAPPPS-NH2) | 3.21 days | 109 h | 0.0013 | optimum free unbound peptide | <0.002 | ≥ 15 mg/mL | ≥ 30 mg/mL |  |  |  |  |  |  |  |  |  | 
CC[C@H](C)[C@H](NC(=O)[C@H](CO)NC(=O)[C@H](Cc1ccc(O)cc1)NC(=O)[C@H](CC(=O)O)NC(=O)[C@H](CO)NC(=O)[C@@H](NC(=O)[C@H](Cc1ccccc1)NC(=O)[C@@H](NC(=O)CNC(=O)[C@H](CCC(=O)O)NC(=O)C(C)(C)NC(=O)[C@H](Cc1ccc(O)cc1)NC)[C@@H](C)O)[C@@H](C)CC)C(=O)N[C@@H](C)C(=O)N[C@@H](CC(C)C)C(=O)N[C@@H](CC(=O)O)C(=O)N[C@@H](CCCNC(=N)N)C(=O)NC(C)(C)C(=O)N[C@@H](CCCCNC(=O)COCCOCCNC(=O)COCCOCCNC(=O)CC[C@H](NC(=O)CC[C@H](NC(=O)CCCCCCCCCCCCCCCCC(=O)O)C(=O)O)C(=O)O)C(=O)N[C@@H](CCC(N)=O)C(=O)NC(C)(C)C(=O)N[C@@H](CC(N)=O)C(=O)N[C@@H](Cc1ccccc1)C(=O)N[C@H](C(=O)N[C@@H](CC(N)=O)C(=O)N[C@@H](Cc1c[nH]c2ccccc12)C(=O)N[C@@H](CC(C)C)C(=O)N[C@@H](CC(C)C)C(=O)N[C@@H](C)C(=O)N[C@@H](CCC(N)=O)C(=O)N[C@@H](CO)C(=O)N1CCC[C@H]1C(=O)N[C@@H](CO)C(=O)N[C@@H](CO)C(=O)NCC(=O)N[C@@H](C)C(=O)N1CCC[C@H]1C(=O)N1CCC[C@H]1C(=O)N1CCC[C@H]1C(=O)N[C@@H](CO)C(N)=O)C(C)C [Compound 293, Me-Y-Aib-E-G-T-F-I-S-D-Y-S-I-A-L-D-R-Aib-Km-Q-Aib-N-F-V-N-W-L-L-A-Q-S-P-S-S-G-A-P-P-P-S-NH2] (H-[NMeY][Aib]EGTFISDYSIALDR[Aib]K([AEEA-AEEA-γGlu-γGlu-C18 diacid])Q[Aib]NFVNWLLAQSPSSGAPPPS-NH2) | 2.83 days | 83 h |  |  |  | ≥ 15 mg/mL | ≥ 30 mg/mL | < 0.002 | optimum free unbound peptide | < 0.002 |  |  |  |  |  |  | 
CC[C@H](C)[C@H](NC(=O)[C@H](CO)NC(=O)[C@H](Cc1ccc(O)cc1)NC(=O)[C@H](CC(=O)O)NC(=O)[C@H](CO)NC(=O)[C@@H](NC(=O)[C@H](Cc1ccccc1)NC(=O)[C@@H](NC(=O)CNC(=O)[C@H](CCC(=O)O)NC(=O)C(C)(C)NC(=O)[C@H](Cc1ccc(O)cc1)NC)[C@@H](C)O)[C@@H](C)CC)C(=O)N[C@@H](C)C(=O)N[C@@H](CC(C)C)C(=O)N[C@@H](CC(=O)O)C(=O)N[C@@H](CCCNC(=N)N)C(=O)NC(C)(C)C(=O)N[C@@H](C)C(=O)N[C@@H](CCC(N)=O)C(=O)NC(C)(C)C(=O)N[C@@H](CCCCNC(=O)COCCOCCNC(=O)COCCOCCNC(=O)CC[C@H](NC(=O)CC[C@H](NC(=O)CCCCCCCCCCCCCCCCC(=O)O)C(=O)O)C(=O)O)C(=O)N[C@@H](Cc1ccccc1)C(=O)N[C@H](C(=O)N[C@@H](CC(N)=O)C(=O)N[C@@H](Cc1c[nH]c2ccccc12)C(=O)N[C@@H](CC(C)C)C(=O)N[C@@H](CC(C)C)C(=O)N[C@@H](C)C(=O)N[C@@H](CCC(N)=O)C(=O)N[C@@H](CCCCN)C(=O)NCC(=O)O)C(C)C [Compound 41, Me-Y-Aib-E-G-T-F-I-S-D-Y-S-I-A-L-D-R-Aib-A-Q-Aib-Km-F-V-N-W-L-L-A-Q-K-G-OH] (H-[NMeY][Aib]EGTFISDYSIALDR[Aib]AQ[Aib]K([AEEA-AEEA-γGlu-γGlu-C18 diacid])FVNWLLAQKG-OH) |  |  |  | optimum free unbound peptide |  | ≥ 15 mg/mL |  |  |  |  | 4.79 days | 119 h | <0.002 | 0.0007 |  |  | 
CC[C@H](C)[C@H](NC(=O)[C@H](CO)NC(=O)[C@H](Cc1ccc(O)cc1)NC(=O)[C@H](CC(=O)O)NC(=O)[C@H](CO)NC(=O)[C@@H](NC(=O)[C@H](Cc1ccccc1)NC(=O)[C@@H](NC(=O)CNC(=O)[C@H](CCC(=O)O)NC(=O)C(C)(C)NC(=O)[C@H](Cc1ccc(O)cc1)NC)[C@@H](C)O)[C@@H](C)CC)C(=O)N[C@@H](C)C(=O)N[C@@H](CCCCNC(=O)CNC(=O)CNC(=O)CNC(=O)CNC(=O)CNC(=O)CCCCCCCCCCCCCCCCCCC(=O)O)C(=O)N[C@@H](CC(=O)O)C(=O)N[C@@H](CCCNC(=N)N)C(=O)NC(C)(C)C(=O)N[C@@H](C)C(=O)N[C@@H](CCC(N)=O)C(=O)NC(C)(C)C(=O)N[C@@H](CC(N)=O)C(=O)N[C@@H](Cc1ccccc1)C(=O)N[C@H](C(=O)N[C@@H](CC(N)=O)C(=O)N[C@@H](Cc1c[nH]c2ccccc12)C(=O)N[C@@H](CC(C)C)C(=O)N[C@@H](CC(C)C)C(=O)N[C@@H](C)C(=O)N[C@@H](CCC(N)=O)C(=O)N[C@@H](CO)C(=O)N1CCC[C@H]1C(=O)N[C@@H](CO)C(=O)N[C@@H](CO)C(=O)NCC(=O)N[C@@H](C)C(=O)N1CCC[C@H]1C(=O)N1CCC[C@H]1C(=O)N1CCC[C@H]1C(=O)N[C@@H](CO)C(=O)O)C(C)C [Compound 40] |  |  |  |  |  |  |  |  |  |  |  |  | <0.002 |  | 5.6 nM | 0.0004 | 102% (3 nmol/kg)
